# Source: publication PMC6421115 (The Journal of eukaryotic microbiology, 2018)
# Where a name gives a salt, the structure may show the parent alone. Read-outs that look alike come from different tables or passages of the source. Marks after values point to notes of the source that are not given here.
# T1: human (Homo sapiens) HK-I (HsHK1) (Homo sapiens, UniProt P19367)
# T1 sequence (P19367 1-917): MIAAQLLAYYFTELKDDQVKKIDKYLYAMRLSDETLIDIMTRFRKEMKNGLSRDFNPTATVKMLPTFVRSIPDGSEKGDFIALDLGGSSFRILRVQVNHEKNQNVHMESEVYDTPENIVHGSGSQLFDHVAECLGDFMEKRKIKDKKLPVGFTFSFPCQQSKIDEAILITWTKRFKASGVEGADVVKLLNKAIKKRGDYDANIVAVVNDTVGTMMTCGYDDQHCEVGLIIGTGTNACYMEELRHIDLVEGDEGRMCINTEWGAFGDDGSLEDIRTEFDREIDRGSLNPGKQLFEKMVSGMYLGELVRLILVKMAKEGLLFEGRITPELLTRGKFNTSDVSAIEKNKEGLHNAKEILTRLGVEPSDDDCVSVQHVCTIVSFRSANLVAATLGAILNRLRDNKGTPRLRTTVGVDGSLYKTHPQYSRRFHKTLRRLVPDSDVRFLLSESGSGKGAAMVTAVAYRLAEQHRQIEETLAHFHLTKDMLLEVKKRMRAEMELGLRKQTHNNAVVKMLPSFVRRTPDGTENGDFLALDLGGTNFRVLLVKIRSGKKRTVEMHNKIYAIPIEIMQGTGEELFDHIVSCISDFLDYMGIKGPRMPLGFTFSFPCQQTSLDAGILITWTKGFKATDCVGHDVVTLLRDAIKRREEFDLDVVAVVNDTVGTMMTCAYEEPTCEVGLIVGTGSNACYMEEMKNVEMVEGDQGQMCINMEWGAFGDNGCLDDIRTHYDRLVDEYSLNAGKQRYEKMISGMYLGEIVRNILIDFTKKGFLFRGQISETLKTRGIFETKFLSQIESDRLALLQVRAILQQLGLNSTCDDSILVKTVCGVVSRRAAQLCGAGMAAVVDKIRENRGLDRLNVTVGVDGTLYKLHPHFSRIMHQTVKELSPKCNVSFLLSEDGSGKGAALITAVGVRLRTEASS
# T2: HsHK1 (Homo sapiens, UniProt P19367)
# T2 sequence (P19367 1-917): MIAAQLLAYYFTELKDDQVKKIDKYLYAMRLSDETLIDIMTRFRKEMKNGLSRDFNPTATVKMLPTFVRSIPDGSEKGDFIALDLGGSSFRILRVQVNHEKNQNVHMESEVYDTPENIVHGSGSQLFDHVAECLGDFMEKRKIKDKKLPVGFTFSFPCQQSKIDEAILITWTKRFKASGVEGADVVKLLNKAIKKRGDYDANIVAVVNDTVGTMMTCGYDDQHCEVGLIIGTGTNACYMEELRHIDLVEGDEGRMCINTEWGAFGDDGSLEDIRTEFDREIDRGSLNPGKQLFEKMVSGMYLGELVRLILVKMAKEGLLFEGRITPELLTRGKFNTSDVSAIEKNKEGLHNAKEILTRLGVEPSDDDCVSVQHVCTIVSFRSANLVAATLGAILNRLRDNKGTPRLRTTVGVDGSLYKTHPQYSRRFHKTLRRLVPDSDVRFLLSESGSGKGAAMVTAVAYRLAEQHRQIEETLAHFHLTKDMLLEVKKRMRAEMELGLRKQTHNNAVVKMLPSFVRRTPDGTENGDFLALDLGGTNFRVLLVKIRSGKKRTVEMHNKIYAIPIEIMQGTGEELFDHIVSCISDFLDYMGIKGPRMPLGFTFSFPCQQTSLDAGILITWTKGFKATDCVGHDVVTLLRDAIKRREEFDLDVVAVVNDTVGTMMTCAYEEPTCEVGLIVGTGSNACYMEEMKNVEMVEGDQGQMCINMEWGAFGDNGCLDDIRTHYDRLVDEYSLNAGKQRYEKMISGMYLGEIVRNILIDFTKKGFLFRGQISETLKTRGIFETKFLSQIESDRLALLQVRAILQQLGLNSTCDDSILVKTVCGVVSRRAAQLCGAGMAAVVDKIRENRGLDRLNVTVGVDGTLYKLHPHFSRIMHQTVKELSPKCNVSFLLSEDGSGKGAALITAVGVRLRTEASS
# T3: CpHK (Cryptosporidium parvum, UniProt Q5CWT5)
# T3 sequence (Q5CWT5 1-518): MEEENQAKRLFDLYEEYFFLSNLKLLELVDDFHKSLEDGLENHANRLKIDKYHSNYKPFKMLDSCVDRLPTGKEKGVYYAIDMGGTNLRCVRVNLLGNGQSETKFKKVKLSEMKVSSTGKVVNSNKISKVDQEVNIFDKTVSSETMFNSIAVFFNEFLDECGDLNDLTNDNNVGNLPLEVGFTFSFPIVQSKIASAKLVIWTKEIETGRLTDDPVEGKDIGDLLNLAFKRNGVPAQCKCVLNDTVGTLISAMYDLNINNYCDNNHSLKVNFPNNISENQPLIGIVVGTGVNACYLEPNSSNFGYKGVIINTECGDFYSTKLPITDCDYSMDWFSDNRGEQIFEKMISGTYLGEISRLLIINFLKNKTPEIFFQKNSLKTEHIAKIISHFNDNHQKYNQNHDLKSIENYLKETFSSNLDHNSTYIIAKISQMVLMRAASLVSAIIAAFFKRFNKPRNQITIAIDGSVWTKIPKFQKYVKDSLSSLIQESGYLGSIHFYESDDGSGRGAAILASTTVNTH
# What was measured:
# [1] = molecular target: T4, C. parvum hexokinase (CpHK) (Cryptosporidium parvum, UniProt Q5CWT5); test: biochemical; type: biochemical; details: for Selectivity on enzyme: HsHK1 IC50 versus CpHK IC50; for Mode of inhibition of CpHK: inhibitory kinetics
# [2] = tested on: C. parvum; test: Efficacy against C. parvum growth in vitro in HCT-8 cells, qRT-PCR assay; details: for Safety Interval (TC50/EC50): HCT-8 TC50 / C. parvum EC50
# [3] = tested on: HCT-8 cells; test: Cytotoxicity on host cells, MTT assay
# [4] = molecular target: T1, human (Homo sapiens) HK-I (HsHK1); test: HsHK1 inhibition, HK/G6PDH-coupled assay; type: biochemical
# [5] = molecular target: T2, HsHK1; test: HsHK1 enzyme parameters towards substrates; type: biochemical
# [6] = molecular target: T3, CpHK; test: CpHK enzyme parameters towards substrates; type: biochemical
# [7] = molecular target: T4, C. parvum hexokinase (CpHK); details: ref Yu et al. 2014, cited from earlier work
# [8] = tested on: HCT-8 cells; details: host cells; ref Eltahan et al, 2018; cited from earlier work
# [9] = tested on: C. parvum; details: read-out: Efficacy on C. parvum (EC50); in vitro; ref Eltahan et al, 2018; cited from earlier work
# [10] = substrate: OC[C@H]1OC(O)[C@H](O)[C@@H](O)[C@@H]1O; test: CpHK enzyme parameters towards substrates; type: biochemical, Cryptosporidium parvum; details: other: compound as substrate; pH 7.5
# [11] = substrate: O=CC[C@@H](O)[C@H](O)[C@H](O)CO; test: CpHK enzyme parameters towards substrates; type: biochemical, Cryptosporidium parvum; details: other: compound as substrate; pH 7.5
# [12] = substrate: O=CC[C@@H](O)[C@H](O)[C@H](O)CO; test: purified protein, by the assay type; details: other: compound as substrate, 37 °C, pH 7.5
# [13] = substrate: OC[C@H]1OC(O)[C@H](O)[C@@H](O)[C@@H]1O; test: HsHK1 enzyme parameters towards substrates; type: biochemical, Homo sapiens; details: other: compound as substrate, 37 °C, pH 7.5
# [14] = Cryptosporidium parvum, HCT-8, read-out: Efficacy on C. parvum (EC50)
# [15] = Cryptosporidium parvum, HCT-8, 44 h, read-out: In vitro efficacy (EC50)
molecule,measurement,setting,value
Oc1c(Cl)cc(Cl)c(Cl)c1Cc1c(O)c(Cl)cc(Cl)c1Cl [Hexachlorophene],IC50,[1],8.8 µM
same,Selectivity on enzyme,[1],0.74
same,Mode of inhibition of CpHK,[1],mixed model of inhibition
same,EC50,[2]; [14],0.53 µM
same,Cytotoxicity (TC50),[3]; host cells,100 µM
same,IC50,[4],6.5 µM
"O=CC[C@@H](O)[C@H](O)[C@H](O)CO [2DG, 2-deoxy-D-glucose]",Ratio (2DG/glucose) of HsHK1 Km,[5],9.81
same,Ratio (2DG/glucose) of HsHK1 Vmax,[5],1.28
same,IC50,[1],5750 µM
same,EC50,[2]; [15],540 µM
same,Safety Interval (TC50/EC50),[2],66.7
same,Ratio (2DG/glucose) of CpHK Vmax,[6],0.72
same,Ratio (2DG/glucose) of CpHK Km,[6]; fold lower affinity than for glucose,4.43
same,Cytotoxicity (TC50),[3]; 44 h treatment,36000 µM
same,IC50,[4],10100 µM
same,IC50,[7]; read-out: CpHK IC50,5750 µM
same,Ki,[7]; read-out: CpHK Ki,340 µM
same,Mode of inhibition of CpHK,[7],competitive inhibitor
"O=CC[C@@H](O)[C@H](O)[C@H](O)COP(=O)(O)O [2DG6P, 2-deoxy-D-glucose-6-phosphate]",EC50,[2]; [15],18000 µM
same,Safety Interval (TC50/EC50),[2],>4.0
same,Cytotoxicity (TC50),[3]; 44 h treatment,>72000 µM
C[CH2][Hg][S]c1ccccc1C(=O)[O-].[Na+] [Thimerosal],Mode of inhibition of CpHK,[1],mixed model of inhibition
same,IC50,"[1]; read-out: Inhibition on CpHK (IC50), 37 °C, 1% DMSO",2.3 µM
same,EC50,"[2]; read-out: Efficacy on C. parvum (EC50), in vitro",1.77 µM
same,Cytotoxicity (TC50),[3]; host cells,18.5 µM
same,IC50,"[4]; read-out: Inhibition on HsHK1 (IC50), 37 °C, 1% DMSO",0.35 µM
"OC[C@H]1OC(O)[C@H](F)[C@@H](O)[C@@H]1O (stereo partly shown) [FDG, fluorodeoxyglucose]",IC50,"[1]; read-out: Effect on CpHK, IC50",3700 µM
same,Safety Interval (TC50/EC50),[2],> 240
same,Safety Interval (TC50/EC50),[2]; listed as 2FDG,>240
same,EC50,"[2]; read-out: In vitro efficacy (EC50), 44 h infection assay",300 µM
same,IC50,"[4]; read-out: Effect on HsHK1, IC50, 37 °C",15200 µM
"O=c1c2ccccc2[se]n1-c1ccccc1 [Ebselen, 2-phenyl-1,2-benzisoselenazol-3(2H)-one]",IC50,[1],0.241 µM
same,Selectivity on enzyme,[1],1.10
same,Mode of inhibition of CpHK,[1],noncompetitive inhibitor
same,Reversibility of CpHK inhibition,"[1]; not reversed by up to 50-fold dilution, from 100 to 2 μM",irreversible inhibitor
same,Cytotoxicity (TC50),[8],700 ^* μM
same,IC50,[4],0.265 µM
same,EC50,[9],165 µM
"CCCCC(CC)CNC(=N)NC(=N)NCCCCCCNC(=N)NC(=N)NCC(CC)CCCC (stereo not shown) [Alexidine•2HCl, alexidine dihydrochloride]",IC50,[1],22.1 µM
same,Selectivity on enzyme,[1],1.03
same,Mode of inhibition of CpHK,[1],noncompetitive inhibitor
same,EC50,[2]; [14],8.1 µM
same,Cytotoxicity (TC50),[3]; host cells,32.6 µM
same,IC50,[4],22.7 µM
CpHK (Cryptosporidium parvum Iowa II) (protein) MEEENQAKRLFDLYEEYFFLSNLKLLELVDDFHKSLEDGLENHANRLKIDKYHSNYKPFKMLDSCVDRLPTGKEKGVYYAIDMGGTNLRCVRVNLLGNGQSETKFKKVKLSEMKVSSTGKVVNSNKISKVDQEVNIFDKTVSSETMFNSIAVFFNEFLDECGDLNDLTNDNNVGNLPLEVGFTFSFPIVQSKIASAKLVIWTKEIETGRLTDDPVEGKDIGDLLNLAFKRNGVPAQCKCVLNDTVGTLISAMYDLNINNYCDNNHSLKVNFPNNISENQPLIGIVVGTGVNACYLEPNSSNFGYKGVIINTECGDFYSTKLPITDCDYSMDWFSDNRGEQIFEKMISGTYLGEISRLLIINFLKNKTPEIFFQKNSLKTEHIAKIISHFNDNHQKYNQNHDLKSIENYLKETFSSNLDHNSTYIIAKISQMVLMRAASLVSAIIAAFFKRFNKPRNQITIAIDGSVWTKIPKFQKYVKDSLSSLIQESGYLGSIHFYESDDGSGRGAAILASTTVNTH,Km,[10],46 µM
same,Vmax,[10],155 µmol/min
same,Km,[11],204 µM
same,Vmax,[11],112 µmol/min
HsHK1 (Homo sapiens) (protein) MIAAQLLAYYFTELKDDQVKKIDKYLYAMRLSDETLIDIMTRFRKEMKNGLSRDFNPTATVKMLPTFVRSIPDGSEKGDFIALDLGGSSFRILRVQVNHEKNQNVHMESEVYDTPENIVHGSGSQLFDHVAECLGDFMEKRKIKDKKLPVGFTFSFPCQQSKIDEAILITWTKRFKASGVEGADVVKLLNKAIKKRGDYDANIVAVVNDTVGTMMTCGYDDQHCEVGLIIGTGTNACYMEELRHIDLVEGDEGRMCINTEWGAFGDDGSLEDIRTEFDREIDRGSLNPGKQLFEKMVSGMYLGELVRLILVKMAKEGLLFEGRITPELLTRGKFNTSDVSAIEKNKEGLHNAKEILTRLGVEPSDDDCVSVQHVCTIVSFRSANLVAATLGAILNRLRDNKGTPRLRTTVGVDGSLYKTHPQYSRRFHKTLRRLVPDSDVRFLLSESGSGKGAAMVTAVAYRLAEQHRQIEETLAHFHLTKDMLLEVKKRMRAEMELGLRKQTHNNAVVKMLPSFVRRTPDGTENGDFLALDLGGTNFRVLLVKIRSGKKRTVEMHNKIYAIPIEIMQGTGEELFDHIVSCISDFLDYMGIKGPRMPLGFTFSFPCQQTSLDAGILITWTKGFKATDCVGHDVVTLLRDAIKRREEFDLDVVAVVNDTVGTMMTCAYEEPTCEVGLIVGTGSNACYMEEMKNVEMVEGDQGQMCINMEWGAFGDNGCLDDIRTHYDRLVDEYSLNAGKQRYEKMISGMYLGEIVRNILIDFTKKGFLFRGQISETLKTRGIFETKFLSQIESDRLALLQVRAILQQLGLNSTCDDSILVKTVCGVVSRRAAQLCGAGMAAVVDKIRENRGLDRLNVTVGVDGTLYKLHPHFSRIMHQTVKELSPKCNVSFLLSEDGSGKGAALITAVGVRLRTEASS,Km,[12],265 µM
same,Vmax,[12],68.4 µmol/min
same,Km,[13],27 µM
same,Vmax,[13],53.3 µmol/min
